In US20240246969A1, “HETEROCYCLIC DERIVATIVES AS CAMKK2 INHIBITORS” (Bristol-Myers Squibb Company, priority 2021, published 2024):

target: CaMKK2 (Homo sapiens, UniProt Q96RR4); assay: CaMKK2 binding assay (LanthaScreen TR-FRET); conditions: not given
Method: The ability of test compounds to bind and inhibit the activity of CaMKK2 were determined using a binding assay using LanthaScreent (Thermofisher) detection reagents in a 384-well plate format using the following assay buffer: 50 mM HEPES (pH7.5), 10 mM MgCl2, 1 mM EGTA, and 0.01% Brij-35.
A 10-point serial dilution of inhibitor compound in 0.5% DMSO was added to each well of the plate. The final assay volume in well was 15 uL. […] A ratio was calculated from the 2 readouts and fitted to a 4-parameter fit to determine the binding IC50.

Sequence of CaMKK2 (Q96RR4 whole entry): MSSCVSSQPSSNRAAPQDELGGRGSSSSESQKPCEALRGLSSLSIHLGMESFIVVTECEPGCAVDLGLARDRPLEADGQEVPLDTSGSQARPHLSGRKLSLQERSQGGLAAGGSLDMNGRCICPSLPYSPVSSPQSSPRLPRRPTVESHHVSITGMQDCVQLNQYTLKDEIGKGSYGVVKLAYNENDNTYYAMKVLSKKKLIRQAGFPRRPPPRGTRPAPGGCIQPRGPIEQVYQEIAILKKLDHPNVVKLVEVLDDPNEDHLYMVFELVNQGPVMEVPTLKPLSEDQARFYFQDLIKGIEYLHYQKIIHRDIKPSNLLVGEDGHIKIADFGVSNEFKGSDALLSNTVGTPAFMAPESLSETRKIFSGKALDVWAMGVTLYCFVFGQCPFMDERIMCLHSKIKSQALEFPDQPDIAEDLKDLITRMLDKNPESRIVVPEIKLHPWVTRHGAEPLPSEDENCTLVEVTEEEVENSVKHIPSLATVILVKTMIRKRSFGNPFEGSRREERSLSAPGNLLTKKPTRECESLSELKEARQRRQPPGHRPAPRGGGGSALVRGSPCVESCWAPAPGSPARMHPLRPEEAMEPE

| Compound | IC50 |
| --- | --- |
| Cc1cc(C)cc(-c2cnc3ccn(-c4ccc(C(=O)O)c(C5CCNC5)c4)c3n2)c1 (single isomer, unassigned) [Example 26] | < 100 nM |
| Cc1cc(C)cc(-c2cnc3ccn(-c4ccc(C(=O)O)c(C5CCCNC5)c4)c3n2)c1 (single isomer, unassigned) [Example 28] | < 100 nM |
| O=C(O)c1ccc(-c2ccnc3cc(C4CC4)nn23)cc1C1CCCC1 [Example 2.1, 2-Cyclopentyl-4-(2-cyclopropylpyrazolo[1,5-a]pyrimidin-7-yl)benzoic Acid] | < 100 nM |
| COc1cc2nccc(-c3ccc(C(=O)O)c(C4CCCC4)c3)n2n1 [Example 2.3, 2-Cyclopentyl-4-(2-methoxypyrazolo[1,5-a]pyrimidin-7-yl)benzoic Acid] | < 100 nM |
| CCOc1cc2nccc(-c3ccc(C(=O)O)c(C4CCCC4)c3)n2n1 [Example 2.4, 2-Cyclopentyl-4-(2-ethoxypyrazolo[1,5-a]pyrimidin-7-yl)benzoic Acid] | < 100 nM |
| O=C(O)c1ccc(-c2ccnc3cc(-c4ccc(F)cc4)nn23)cc1C1CCCC1 [Example 2.5, 2-Cyclopentyl-4-(2-(4-fluorophenyl)pyrazolo[1,5-a]pyrimidin-7-yl)benzoic Acid] | < 100 nM |
| O=C(O)c1ccc(-c2ccnc3cc(-c4cccc(F)c4)nn23)cc1C1CCCC1 [Example 2.7, 2-Cyclopentyl-4-(2-(3-fluorophenyl)pyrazolo[1,5-a]pyrimidin-7-yl)benzoic Acid] | < 100 nM |
| COc1ccc(-c2cc3nccc(-c4ccc(C(=O)O)c(C5CCCC5)c4)n3n2)cc1 [Example 2.8, 2-Cyclopentyl-4-(2-(4-methoxyphenyl)pyrazolo[1,5-a]pyrimidin-7-yl)benzoic Acid] | < 100 nM |
| COc1cccc(-c2cc3nccc(-c4ccc(C(=O)O)c(C5CCCC5)c4)n3n2)c1 [Example 2.9, 2-Cyclopentyl-4-(2-(3-methoxyphenyl)pyrazolo[1,5-a]pyrimidin-7-yl)benzoic Acid] | < 100 nM |
| Cn1cc(-c2cc3nccc(-c4ccc(C(=O)O)c(C5CCCC5)c4)n3n2)cn1 [Example 2.12, 2-Cyclopentyl-4-(2-(1-methyl-H-pyrazol-4-yl)pyrazolo[1,5-a]pyrimidin-7-yl)benzoic Acid] | < 100 nM |
| COc1cc(-c2ccnc3cc(-c4ccc(F)cc4)nn23)ccc1C(=O)N[C@H](CO)c1ccccc1 [Example 2.13, (S)-4-(2-(4-Fluorophenyl)pyrazolo[1,5-a]pyrimidin-7-yl)-N-(2-hydroxy-1-phenylethyl)-2-methoxybenzamide] | < 100 nM |
| Cc1cc(-n2cc3ncc(F)c(-c4ccc(C(=O)O)c(C5CCCC5)c4)c3n2)cc(C(F)(F)F)c1 [Example 3.8, 2-Cyclopentyl-4-(6-fluoro-2-(3-methyl-5-(trifluoromethyl)phenyl)-2H-pyrazolo[4,3-b]pyridin-7-yl)benzoic Acid] | < 100 nM |
| O=C(O)c1ccc(-c2c(F)cnc3cn(-c4cc(F)cc(Cl)c4)nc23)cc1C1CCCC1 [Example 3.10, 4-(2-(3-Chloro-5-fluorophenyl)-6-fluoro-2H-pyrazolo[4,3-b]pyridin-7-yl)-2-cyclopentylbenzoic Acid] | < 100 nM |
| Cc1cc(F)cc(-n2cc3ncc(F)c(-c4ccc(C(=O)O)c(C5CCCC5)c4)c3n2)c1 [Example 3.11, 2-Cyclopentyl-4-(6-fluoro-2-(3-fluoro-5-methylphenyl)-2H-pyrazolo[4,3-b]pyridin-7-yl)benzoic Acid] | < 100 nM |
| COc1cc(-n2cc3ncc(F)c(-c4ccc(C(=O)O)c(C5CCCC5)c4)c3n2)cc(C(F)(F)F)c1 [Example 3.13, 2-Cyclopentyl-4-(6-fluoro-2-(3-methoxy-5-(trifluoromethyl)phenyl)-2H-pyrazolo[4,3-b]pyridin-7-yl)benzoic Acid] | < 100 nM |
| O=C(O)c1ccc(-c2c(F)cnc3cn(-c4cc(F)cc(C(F)(F)F)c4)nc23)cc1C1CCCC1 [Example 3.14, 2-Cyclopentyl-4-(6-fluoro-2-(3-fluoro-5-(trifluoromethyl)phenyl)-2H-pyrazolo[4,3-b]pyridin-7-yl)benzoic Acid] | < 100 nM |
| O=C(O)c1ccc(-c2c(F)cnc3cn(-c4cc(Cl)cc(C(F)(F)F)c4)nc23)cc1C1CCCC1 [Example 3.15, 4-(2-(3-Chloro-5-(trifluoromethyl)phenyl)-6-fluoro-2H-pyrazolo[4,3-b]pyridin-7-yl)-2-cyclopentylbenzoic] | < 100 nM |
| COc1cc(-c2ccnc3cn(-c4ccc(F)cc4)nc23)ccc1C(=O)N[C@H](CO)c1ccccc1 [Example 3.19, (S)-4-(2-(4-fluorophenyl)-2H-pyrazolo[4,3-b]pyridin-7-yl)-N-(2-hydroxy-1-phenylethyl)-2-methoxybenzamide] | < 100 nM |
| N#CNC(=O)c1ccc(-c2ccnc3cn(-c4ccc(F)cc4)nc23)cc1C1CCCC1 [Example 3.20, N-Cyano-2-cyclopentyl-4-(2-(4-fluorophenyl)-2H-pyrazolo[4,3-b]pyridin-7-yl)benzamide] | < 100 nM |

| Compound | IC50 |
| --- | --- |
| O=C(O)c1ccc(-c2c(F)cnc3cn(-c4ccc(F)cc4)nc23)cc1NC1CC1 [Example 3.21, 2-(Cyclopropylamino)-4-(6-fluoro-2-(4-fluorophenyl)-2H-pyrazolo[4,3-b]pyridin-7-yl)benzoic Acid] | < 100 nM |
| Cc1cccc(-c2cnc3ccn(-c4ccc(C(=O)O)c(C5CCCC5)c4)c3n2)c1 [Example 4, 2-Cyclopentyl-4-(3-(m-tolyl)-5H-pyrrolo[2,3-b]pyrazin-5-yl)benzoic Acid] | < 100 nM |
| Cc1cccc(-c2cc3c(-c4ccc(C(=O)O)c(C5CCCC5)c4)ccnn3c2)c1 [Example 4.2, 2-Cyclopentyl-4-[6-(m-tolyl)pyrrolo[1,2-b]pyridazin-4-yl]benzoic Acid] | < 100 nM |
| O=C(O)c1ccc(-c2ccnn3cc(-c4ccccc4F)cc23)cc1C1CCCC1 [Example 4.3, 2-Cyclopentyl-4-[6-(2-fluorophenyl)pyrrolo[1,2-b]pyridazin-4-yl]benzoic Acid] | < 100 nM |
| Cn1ncc2cc(-c3cnc4ccn(-c5ccc(C(=O)O)c(NCC6CC6)c5)c4n3)c(F)cc21 [Example 8, 2-((Cyclopropylmethyl)amino)-4-(3-(6-fluoro-1-methyl-1H-indazol-5-yl)-5H-pyrrolo[2,3-b]pyrazin-5-yl)benzoic Acid] | < 100 nM |
| O=C(O)c1ccc(-n2ccc3ncc(-c4ccc(F)cc4F)nc32)cc1NC1CC1 [Example 10, 2-(Cyclopropylamino)-4-(3-(2,4-difluorophenyl)-5H-pyrrolo[2,3-b]pyrazin-5-yl)benzoic Acid] | < 100 nM |
| O=C(O)c1ccc(-n2ccc3ncc(-c4ccc(F)cc4)nc32)cc1NCC1CC1 [Example 11, 2-((Cyclopropylmethyl)amino)-4-(3-(4-fluorophenyl)-5H-pyrrolo[2,3-b]pyrazin-5-yl)benzoic Acid] | < 100 nM |
| CCNc1cc(-n2ccc3ncc(-c4ccc5c(cnn5C)c4)nc32)ccc1C(=O)O [Example 14, 2-(Ethylamino)-4-(3-(1-methyl-1H-indazol-5-yl)-5H-pyrrolo[2,3-b]pyrazin-5-yl)benzoic Acid] | < 100 nM |
| O=C(O)c1ccc(-n2ccc3ncc(-c4ccc(F)cc4)nc32)cc1NC1CC1 [Example 15, 2-(Cyclopropylamino)-4-(3-(4-fluorophenyl)-5H-pyrrolo[2,3-b]pyrazin-5-yl)benzoic Acid] | < 100 nM |
| CCNc1cc(-n2ccc3ncc(-c4ccc5cn(C)nc5c4)nc32)ccc1C(=O)O [Example 16, 2-(Ethylamino)-4-(3-(2-methyl-2H-indazol-6-yl)-5H-pyrrolo[2,3-b]pyrazin-5-yl)benzoic Acid] | < 100 nM |
| Cn1cc2ccc(-c3cnc4ccn(-c5ccc(C(=O)O)c(NCC6CC6)c5)c4n3)cc2n1 [Example 17, 2-((Cyclopropylmethyl)amino)-4-(3-(2-methyl-2H-indazol-6-yl)-5H-pyrrolo[2,3-b]pyrazin-5-yl)benzoic Acid] | < 100 nM |
| O=C(NS(=O)(=O)C(F)(F)F)c1ccc(-n2ccc3ncc(C4CC4)nc32)cc1C1CCCC1 [Example 21, 2-Cyclopentyl-4-(3-cyclopropyl-5H-pyrrolo[2,3-b]pyrazin-5-yl)-N-((trifluoromethyl)sulfonyl)benzamide] | 100 to 1000 nM |
| N#Cc1ccc(-n2ccc3ncc(-c4ccccc4)nc32)cc1C1CCCC1 [Example 22, 2-Cyclopentyl-4-(3-phenyl-5H-pyrrolo[2,3-b]pyrazin-5-yl)benzonitrile] | 1000 to 10000 nM |
| c1ccc(-c2cnc3ccn(-c4ccc(-c5nn[nH]n5)c(C5CCCC5)c4)c3n2)cc1 [Example 23, 5-(3-Cyclopentyl-4-(2H-tetrazol-5-yl)phenyl)-3-phenyl-5H-pyrrolo[2,3-b]pyrazine] | < 100 nM |
| Cc1cc(C)cc(-c2cnc3ccn(-c4ccc(C(=O)O)c(NC5CNC5)c4)c3n2)c1 [Example 25, 2-(azetidin-3-ylamino)-4-(3-(3,5-dimethylphenyl)-5H-pyrrolo[2,3-b]pyrazin-5-yl)benzoic Acid] | < 100 nM |
| Cc1cc(C)cc(-c2cnc3ccn(-c4ccc(C(=O)O)c(CC5CNC5)c4)c3n2)c1 [Example 27, 2-(azetidin-3-ylmethyl)-4-(3-(3,5-dimethylphenyl)-5H-pyrrolo[2,3-b]pyrazin-5-yl) benzoic Acid] | < 100 nM |
| Cc1cc(C)cc(-c2cnc3ccn(-c4ccc(C(=O)O)c(C5CCNCC5)c4)c3n2)c1 [Example 29, 4-(3-(3,5-dimethylphenyl)-5H-pyrrolo[2,3-b]pyrazin-5-yl)-2-(piperidin-4-yl)benzoic Acid] | < 100 nM |
| Cc1cc(C)cc(-c2cnc3ccn(-c4ccc(C(=O)O)c(N[C@@H]5CCNC5)c4)c3n2)c1 [Example 31, (R)-4-(3-(3,5-dimethylphenyl)-5H-pyrrolo[2,3-b]pyrazin-5-yl)-2-(pyrrolidin-3-ylamino)benzoic Acid] | < 100 nM |

same assay, conditions: binding IC50, 1 nM CaMKK2, 5 nM Kinase tracer 236, 20 minutes

| Compound | IC50 |
| --- | --- |
| 2-((azetidin-3-ylmethyl)amino)-4-(3-(3,5-dimethylphenyl)-5H-pyrrolo[2,3-b]pyrazin-5-yl)benzoic Acid [Example 30] | < 100 nM |
